From ChEMBL document CHEMBL4428058, “Hit-to-Lead Studies for the Antimalarial Tetrahydroisoquinolone Carboxanilides” (J Med Chem, 2016)
One block for each molecule: values may come before it.

Tests used:
Assay type in all cases: ADME, Microsome
[1] = Half life in CD-1 mouse liver microsomes in presence of NADPH by UPLC-MS analysis; conditions: for t1/2: mouse, microsomes
[2] = Drug metabolism in CD-1 mouse liver microsomes assessed as (3S,4S)-N-(3-chloro-4-hydroxyphenyl)-2-isobutyl-1-oxo-3-(thiophen-2-yl)-1,2,3,4-tetrahydroisoquinoline-4-carboxamide formation
[3] = Drug metabolism in CD-1 mouse liver microsomes assessed as oxidation at N-2 isobutyl group
[4] = Drug level in CD-1 mouse liver microsomes treated with (3S,4S)-N-(3-cyanophenyl)-2-isobutyl-1-oxo-3-(thiophen-2-yl)-1,2,3,4-tetrahydroisoquinoline-4-carboxamide
[5] = Drug metabolism in CD-1 mouse liver microsomes assessed as ((3S,4S)-N-(3-hydroxyphenyl)-2-isobutyl-1-oxo-3-(thiophen-2-yl)-1,2,3,4-tetrahydroisoquinoline-4-carboxamide formation
[6] = Drug level in CD-1 mouse liver microsomes treated with (3S,4S)-N-(3-chloro-4-methoxyphenyl)-2-isobutyl-1-oxo-3-(thiophen-2-yl)-1,2,3,4-tetrahydroisoquinoline-4-carboxamide

Structure (SMILES): CC(C)CN1C(=O)c2ccccc2[C@H](C(=O)Nc2ccc(F)c(C#N)c2)[C@H]1c1cn[nH]c1 (racemic)
t1/2 [1]: 19.8 min

Structure (SMILES): N#Cc1cc(NC(=O)[C@H]2c3ccccc3C(=O)N(CC(F)(F)F)[C@@H]2c2cccnc2)ccc1F (relative stereo) [SJ-733]
t1/2 [1]: 97.8 min

Structure (SMILES): N#Cc1cc(NC(=O)[C@H]2c3ccccc3C(=O)N(CC(F)(F)F)[C@@H]2c2cn[nH]c2)ccc1F (relative stereo)
t1/2 [1]: > 240 min

Structure (SMILES): CC(C)CN1C(=O)c2ccccc2[C@H](C(=O)Nc2ccc(F)c(C#N)c2)[C@H]1c1ccc(C#N)s1 (racemic)
t1/2 [1]: 72.6 min

Structure (SMILES): CC(C)CN1C(=O)c2ccccc2[C@H](C(=O)Nc2cccc(C#N)c2)[C@H]1c1cccs1 (racemic)
t1/2 [1]: 16.8 min
Drug metabolism [3]: Metabolite_Detected
Drug metabolism [5]: Metabolite_Detected

Further lines, results first:

Drug metabolism [2]: Metabolite_Detected
half-life ([1]; CD-1, mouse, liver microsomes): < 30 min
Drug metabolism [3]: Metabolite_Detected
Structure (SMILES): COc1ccc(NC(=O)[C@H]2c3ccccc3C(=O)N(CC(C)C)[C@@H]2c2cccs2)cc1Cl (racemic)

Drug metabolism [4]: Metabolite_Detected
Structure (SMILES): CC(C)CN1C(=O)c2ccccc2[C@H](C(=O)Nc2cccc(O)c2)[C@H]1c1cccs1 (relative stereo)

Drug metabolism [6]: Metabolite_Detected
Structure (SMILES): CC(C)CN1C(=O)c2ccccc2[C@H](C(=O)Nc2ccc(O)c(Cl)c2)[C@H]1c1cccs1 (relative stereo)
